According to patent publication US20250213561A1, “SELECTIVE HYPOTHALAMUS PERMEABLE HDAC6 INHIBITORS FOR TREATMENT OF LEPTIN-RESISTANT OBESITY” (The Children’s Medical Center Corporation, priority 2022, published 2025):

Columns and labels:
Format in all cases: in vivo
DIO mice = assay: Acute leptin co-treatment in DIO mice (body weight, food intake 15 h); conditions: for body weight, leptin after pre-treatment with inhibitor: 3 days pre-treatment
Procedure: DIO mice were pretreated with ACY775 (10 mg/kg/day, i.p.) or vehicle for 3 days, which was followed by co-treatment with ACY775 (or vehicle) and leptin (1 mg/kg, i.p.) (or saline) (n=9 for each group), % change in body weight 15 h after leptin treatment, food intake (g) during the 15 h period after leptin treatment. The results in were reproduced in two independent experiments.
Diet induced obese (DIO) mice were pretreated with ACY775 (10 mg/kg/day, i.p.) or vehicle for 3 days, which was followed by co-treatment with ACY775 (or vehicle) and leptin (1 mg/kg, i.p.) (or saline) (n=9 for each group). Mice were evaluated for % change in body weight 15 h after leptin treatment, and food intake (g) during the 15 h period after leptin treatment.
DIO mice were pretreated with ricolinostat (25 mg/kg/day, i.p.) or vehicle for 3 days, which was followed by co-treatment with ricolinostat (or vehicle) and leptin (1 mg/kg, i.p.) (or saline) (n=32 for each group). Change in body weight 15 h after leptin treatment, and food intake (g) during the 15 h period after leptin treatment were determined. The results were reproduced in two independent experiments.

p-STAT3^Tyr705 = assay: Leptin-stimulated hypothalamic STAT3 Tyr705 phosphorylation in DIO mice; conditions: 45 minutes after leptin 1 mg/kg i.p.
Procedure: DIO mice were pretreated with ACY775 (10 mg/kg/day, i.p.) or vehicle for 3 days, which was followed by a last injection of ACY775 (or vehicle) in the morning of fourth day. 6 hours later mice were injected with saline or leptin (1 mg/kg, i.p.) and hypothalamus were extracted after 45 minutes following the leptin injection. Representative immunoblots for STAT3^Tyr705 phosphorylation and total STAT3 from the hypothalamus. Quantification of the ratio of p-STAT3^Tyr705 to total-STAT3 signal in the immunoblots. The results were reproduced in three independent experiments. The results were analyzed hourly.
DIO mice were pretreated with ACY775 (10 mg/kg/day, i.p.) or vehicle for 3 days, which was followed by a last injection of ACY775 (or vehicle) in the morning of fourth day. 6 hours later mice were injected with saline or leptin (1 mg/kg, i.p.) and the hypothalamus were extracted after 45 minutes following the leptin injection.
6 hours later mice were injected with saline or leptin (1 mg/kg, i.p.) and hypothalamus were extracted after 45 minutes following the leptin injection. Immunoblots for STAT3^Tyr705 phosphorylation and total STAT3 from the hypothalamus were made to quantify the ratio of p-STAT3^Tyr705 to total-STAT3 signal in the immunoblots. The results were reproduced in two independent experiments.
DIO mice were pretreated with ricolinostat (50 mg/kg/day, i.p.) or vehicle 3 days, which was followed by a last injection of ricolinostat (or vehicle) in the morning of fourth day. 6 hours later mice were injected with saline or leptin (1 mg/kg, i.p.) and the hypothalamus were extracted after 45 minutes following the leptin injection. Immunoblots were performed for STAT3^Tyr705 phosphorylation and total STAT3 from the hypothalamus. The ratio of p-STAT3^Tyr705 to total STAT3 signal in the immunoblots was quantified.

db/db mice = assay: Chronic treatment of db/db mice; conditions: for ITT blood glucose: 2 weeks; for fasting blood glucose: after the first week
Procedure: Daily food intake (g), Serum leptin (ng/ml), lean mass (g), fat mass (g) and fat percentage (%) were measured after 3 weeks of treatment measured by DEXA scan. GTT was determined after 1 week of treatment. AOC analysis for GTT was performed and Blood glucose (mg/dl) levels were measured after 1 week of treatment. Blood glucose (mg/dl) levels and Serum insulin (ng/ml) levels were measured after 3 weeks of treatment. ITT was assessed after 2 weeks of treatment. H&E staining of the liver sections was conducted after 3 weeks of treatment.

[1] = leptin 1 mg/kg i.p., 15 h period

SMILES	body weight, agent alone (DIO mice; 15 h, ACY775 10 mg/kg, ricolinostat 25 mg/kg, leptin 1 mg/kg i.p.)	food intake, agent alone (DIO mice; 15 h period)	body weight, leptin after pre-treatment with inhibitor (DIO mice; leptin 1 mg/kg i.p., 15 h)	food intake, leptin together with inhibitor (DIO mice; [1])	leptin-stimulated hypothalamic p-STAT3^Tyr705 (p-STAT3^Tyr705)	food intake (db/db mice)	ITT blood glucose (db/db mice)	blood glucose lowering at end of treatment (db/db mice; 3 weeks)	fasting blood glucose (db/db mice)
O=C(NO)c1cnc(NC2(c3cccc(F)c3)CCCCC2)nc1 [ACY775, 2-[[1-(3-fluorophenyl)cyclohexyl]amino]-N-hydroxy-5-pyrimidinecarboxamide]	significantly decreased the bodyweight	reduced the food intake	further reduction in bodyweight	further augmented the negative effect of leptin on food intake	increased significantly	transitionally reduced	no significant difference in blood glucose levels	completely diminished	lower in ACY775-treated mice than vehicle-treated mice
O=C(NO)c1cnc(NC2(c3ccccc3)CC2)nc1 [ACY738]			significantly augmented the acute leptin-induced reduction in body weight and food intake	significantly augmented the acute leptin-induced reduction in body weight and food intake	substantially increased	not affected	no significant difference in blood glucose levels		not affected
